Assay results taken from US10669258B2, “3-sulfonyl-5-aminopyridine-2,4-diol APJ agonists” (BRISTOL-MYERS SQUIBB COMPANY, priority 2016, dated 2020).
Like-named read-outs stand apart in the source and are kept apart here.

Biological target: T1, human APJ receptor (Homo sapiens, UniProt P35414)
T1 construct: expressed in transfected cells; host or cells: HEK293
T1 sequence (P35414 1-380): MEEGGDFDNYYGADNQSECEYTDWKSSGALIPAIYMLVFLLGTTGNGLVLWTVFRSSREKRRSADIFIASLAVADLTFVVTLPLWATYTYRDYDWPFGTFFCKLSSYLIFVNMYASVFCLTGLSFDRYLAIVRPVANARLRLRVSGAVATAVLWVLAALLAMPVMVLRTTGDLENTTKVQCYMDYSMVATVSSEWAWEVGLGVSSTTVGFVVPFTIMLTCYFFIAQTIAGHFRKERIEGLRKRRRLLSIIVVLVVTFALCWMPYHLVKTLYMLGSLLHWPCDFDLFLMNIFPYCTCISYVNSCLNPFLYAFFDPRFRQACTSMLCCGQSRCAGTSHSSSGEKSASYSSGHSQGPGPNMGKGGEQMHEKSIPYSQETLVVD
Assay: Intracellular cAMP accumulation assay (APJ hcAMP, HTRF)
Assay type: cell-based
In short: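 Inhibition of forskolin (2 μM)-driven cAMP, with […], measured by HTRF after 30 min room-temperature compound exposure of stably transfected HEK293 cells. cAMP read from a standard curve; variable-slope fit gives EC50, and maximal inhibition is normalised to (Pyr1)apelin-13 as 100%.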

[1] = HEK293 cells stably expressing human APJ receptor; inhibition of forskolin-mediated cAMP production; Table 1; read-out: hAPJ cAMP EC50 Potency range

## CCCCc1nc(O)c(S(=O)(=O)c2ccc(-c3ccc(F)nc3C)cc2)c(O)c1N(C)c1cccc(C#N)c1 [Example 117, 3-((2-butyl-5-((4-(6-fluoro-2-methylpyridin-3-yl)phenyl)sulfonyl)-4,6-dihydroxypyridin-3-yl)(methyl)amino)benzonitrile]
[1]
  EC50: 0.01 to 10 nM

## CCCCc1nc(O)c(S(=O)(=O)c2ccc(-c3ccc(F)nc3C)cc2)c(O)c1N(C)c1ccccc1F [Example 118, 6-butyl-3-((4-(6-fluoro-2-methylpyridin-3-yl)phenyl)sulfonyl)-5-((2-fluorophenyl)(methyl)amino)pyridine-2,4-diol]
[1]
  EC50: 0.01 to 10 nM

## CCCCc1nc(O)c(S(=O)(=O)c2ccc(-c3cccnc3C)cc2)c(O)c1N(C)c1cccc(C#N)c1 [Example 119, 3-((2-butyl-4,6-dihydroxy-5-((4-(2-methylpyridin-3-yl)phenyl)sulfonyl)pyridin-3-yl)(methyl)amino)benzonitrile]
[1]
  EC50: 0.01 to 10 nM

## CCN(c1ccccc1)c1c(-c2cccc(C)c2)nc(O)c(S(=O)(=O)c2ccc(-c3ccncc3C)cc2)c1O [Example 120, 5-(ethyl(phenyl)amino)-3-((4-(3-methylpyridin-4-yl)phenyl)sulfonyl)-6-(m-tolyl)pyridine-2,4-diol]
[1]
  EC50: 0.01 to 10 nM

## CCN(c1ccccc1)c1c(-c2cccc(C)c2)nc(O)c(S(=O)(=O)c2ccc(-c3ccnc(F)c3C)cc2)c1O [Example 122, 5-(ethyl(phenyl)amino)-3-((4-(2-fluoro-3-methylpyridin-4-yl)phenyl)sulfonyl)-6-(m-tolyl)pyridine-2,4-diol]
[1]
  EC50: 0.01 to 10 nM

## CCCCc1nc(O)c(S(=O)(=O)c2ccc(-c3cccnc3C)cc2)c(O)c1N1CCCOc2ccccc21 [Example 123, 6-butyl-5-(3,4-dihydrobenzo[b][1,4]oxazepin-5(2H)-yl)-3-((4-(2-methylpyridin-3-yl)phenyl)sulfonyl)pyridine-2,4-diol]
[1]
  EC50: 10 to 100 nM

## CCCCc1nc(O)c(S(=O)(=O)c2ccc(-c3cccnc3C)cc2)c(O)c1N(C)c1ccccc1F [Example 124, 6-butyl-5-((2-fluorophenyl)(methyl)amino)-3-((4-(2-methylpyridin-3-yl)phenyl)sulfonyl)pyridine-2,4-diol]
[1]
  EC50: 0.01 to 10 nM

## CCCCc1nc(O)c(S(=O)(=O)c2ccc(-c3ccnc(F)c3C)cc2)c(O)c1N(C)c1ccccc1F [Example 125, 6-butyl-3-((4-(2-fluoro-3-methylpyridin-4-yl)phenyl)sulfonyl)-5-((2-fluorophenyl)(methyl)amino)pyridine-2,4-diol]
[1]
  EC50: 0.01 to 10 nM

## CCCCc1nc(O)c(S(=O)(=O)c2ccc(-c3ccc(F)nc3C)cc2)c(O)c1N1CCCCC1c1ccccc1 (stereo not shown) [Example 126, 6-butyl-3-((4-(6-fluoro-2-methylpyridin-3-yl)phenyl)sulfonyl)-5-(2-phenylpiperidin-1-yl)pyridine-2,4-diol]
[1]
  EC50: 10 to 100 nM

## CCCCc1nc(O)c(S(=O)(=O)c2ccc(-c3ccnc(F)c3C)cc2)c(O)c1N1CCCOc2ccccc21 [Example 127, 6-butyl-5-(3,4-dihydrobenzo[b][1,4]oxazepin-5(2H)-yl)-3-((4-(2-fluoro-3-methylpyridin-4-yl)phenyl)sulfonyl)pyridine-2,4-diol]
[1]
  EC50: 0.01 to 10 nM

## CCCCc1nc(O)c(S(=O)(=O)c2ccc(-c3ccnc(F)c3C)cc2)c(O)c1N1CCCCC1c1ccccc1 (stereo not shown) [Example 128, 6-butyl-3-((4-(2-fluoro-3-methylpyridin-4-yl)phenyl)sulfonyl)-5-(2-phenylpiperidin-1-yl)pyridine-2,4-diol]
[1]
  EC50: 10 to 100 nM

## CCCCc1nc(O)c(S(=O)(=O)c2ccc(-c3ccncc3C)cc2)c(O)c1N1CCCOc2ccccc21 [Example 129, 6-butyl-5-(3,4-dihydrobenzo[b][1,4]oxazepin-5(2H)-yl)-3-((4-(3-methylpyridin-4-yl)phenyl)sulfonyl)pyridine-2,4-diol]
[1]
  EC50: 0.01 to 10 nM

## CCN(c1ccccc1)c1c(-c2cccc(C)c2)nc(O)c(S(=O)(=O)c2ccc(Br)cc2)c1O [Example 131, 3-((4-bromophenyl)sulfonyl)-5-(ethyl(phenyl)amino)-6-(m-tolyl)pyridine-2,4-diol]
[1]
  EC50: 10 to 100 nM

## CCN(c1ccccc1)c1c(-c2cccc(C)c2)nc(O)c(C(=O)N2CCC(c3ncc(F)cc3F)C2)c1O (stereo not shown) [Example 132, (3-(3,5-difluoropyridin-2-yl)pyrrolidin-1-yl)(5-(ethyl(phenyl)amino)-2,4-dihydroxy-6-(m-tolyl)pyridin-3-yl)methanone]
read-out: hAPJ cAMP EC50 Potency range; HEK293 cells stably expressing human APJ receptor; inhibition of forskolin-mediated cAMP production; Table 1
  EC50: 0.01 to 10 nM

## CCCCc1nc(O)c(S(=O)(=O)c2ccc(-c3ccncc3C)cc2)c(O)c1N(CC)c1cc(C)cc(C)c1 [Example 133, 6-butyl-5-((3,5-dimethylphenyl)(ethyl)amino)-3-((4-(3-methylpyridin-4-yl)phenyl)sulfonyl)pyridine-2,4-diol]
[1]
  EC50: 0.01 to 10 nM

## CCCCc1nc(O)c(S(=O)(=O)c2ccc(Br)cc2)c(O)c1N(CC)c1cc(C)cc(C)c1 [Example 134, 3-((4-bromophenyl)sulfonyl)-6-butyl-5-((3,5-dimethylphenyl)(ethyl)amino)pyridine-2,4-diol]
[1]
  EC50: 10 to 100 nM

## CCCCc1nc(O)c(S(=O)(=O)c2ccc(-c3ccc(F)nc3C)cc2)c(O)c1N(CC)c1cc(C)cc(C)c1 [Example 135, 6-butyl-5-((3,5-dimethylphenyl)(ethyl)amino)-3-((4-(6-fluoro-2-methylpyridin-3-yl)phenyl)sulfonyl)pyridine-2,4-diol]
[1]
  EC50: 0.01 to 10 nM

## CCCCc1nc(O)c(S(=O)(=O)c2ccc(-c3ccnc(F)c3C)cc2)c(O)c1N(CC)c1cc(C)cc(C)c1 [Example 136, 6-butyl-5-((3,5-dimethylphenyl)(ethyl)amino)-3-((4-(2-fluoro-3-methylpyridin-4-yl)phenyl)sulfonyl)pyridine-2,4-diol]
[1]
  EC50: 0.01 to 10 nM

## CCCCc1nc(O)c(S(=O)(=O)c2ccc(-c3ccccc3C(=O)NC)cc2)c(O)c1N(C)c1cccc(C#N)c1 [Example 137, 4′-((6-butyl-5-((3-cyanophenyl)(methyl)amino)-2,4-dihydroxypyridin-3-yl)sulfonyl)-N-methyl-[1,1′-biphenyl]-2-carboxamide]
[1]
  EC50: 0.01 to 10 nM

## CCCCc1nc(O)c(S(=O)(=O)c2ccc(-c3ccccc3C(N)=O)cc2)c(O)c1N(C)c1cccc(C#N)c1 [Example 138, 4′-((6-butyl-5-((3-cyanophenyl)(methyl)amino)-2,4-dihydroxypyridin-3-yl)sulfonyl)-[1,1′-biphenyl]-2-carboxamide]
[1]
  EC50: 0.01 to 10 nM

## CCCCc1nc(O)c(S(=O)(=O)c2ccc(-c3ccccc3C(=O)N(C)C)cc2)c(O)c1N(C)c1cccc(C#N)c1 [Example 139, 4′-((6-butyl-5-((3-cyanophenyl)(methyl)amino)-2,4-dihydroxypyridin-3-yl)sulfonyl)-N,N-dimethyl-[1,1′-biphenyl]-2-carboxamide]
[1]
  EC50: 0.01 to 10 nM

## CCCCc1nc(O)c(S(=O)(=O)c2ccc(-c3ccccc3C(=O)N(C)C)cc2)c(O)c1N(CC)c1cc(C)cc(C)c1 [Example 140, 4′-((6-butyl-5-((3,5-dimethylphenyl)(ethyl)amino)-2,4-dihydroxypyridin-3-yl)sulfonyl)-N,N-dimethyl-[1,1′-biphenyl]-2-carboxamide]
[1]
  EC50: 0.01 to 10 nM

## CCN(c1ccccc1)c1c(-c2cccc(C)c2)nc(O)c(S(=O)(=O)c2ccc(-c3ccccc3C(=O)N(C)C)cc2)c1O [Example 141, 4′-((5-(ethyl(phenyl)amino)-2,4-dihydroxy-6-(m-tolyl)pyridin-3-yl)sulfonyl)-N,N-dimethyl-[1,1′-biphenyl]-2-carboxamide]
[1]
  EC50: 0.01 to 10 nM

## CCCCc1nc(O)c(S(=O)(=O)c2ccc(-c3ccccc3C(=O)N(C)C)cc2)c(O)c1N1CCCOc2ccccc21 [Example 142, 4′-((6-butyl-5-(3,4-dihydrobenzo[b][1,4]oxazepin-5(2H)-yl)-2,4-dihydroxypyridin-3-yl)sulfonyl)-N,N-dimethyl-[1,1′-biphenyl]-2-carboxamide]
[1]
  EC50: 10 to 100 nM

## CCCCc1nc(O)c(S(=O)(=O)c2ccc(-c3ccccc3C(N)=O)cc2)c(O)c1N(CC)c1cc(C)cc(C)c1 [Example 143, 4′-((6-butyl-5-((3,5-dimethylphenyl)(ethyl)amino)-2,4-dihydroxypyridin-3-yl)sulfonyl)-[1,1′-biphenyl]-2-carboxamide]
[1]
  EC50: 0.01 to 10 nM

## CCN(c1ccccc1)c1c(-c2cccc(C)c2)nc(O)c(S(=O)(=O)c2ccc(-c3ccccc3C(N)=O)cc2)c1O [Example 144, 4′-((5-(ethyl(phenyl)amino)-2,4-dihydroxy-6-(m-tolyl)pyridin-3-yl)sulfonyl)-[1,1′-biphenyl]-2-carboxamide]
[1]
  EC50: 0.01 to 10 nM

## CCN(c1ccccc1)c1c(-c2cccc(C)c2)nc(O)c(S(=O)(=O)c2ccc(-c3ccccc3C(=O)NC)cc2)c1O [Example 145, 4′-((5-(ethyl(phenyl)amino)-2,4-dihydroxy-6-(m-tolyl)pyridin-3-yl)sulfonyl)-N-methyl-[1,1′-biphenyl]-2-carboxamide]
[1]
  EC50: 0.01 to 10 nM

## CCCCc1nc(O)c(S(=O)(=O)c2ccc(-c3ccccc3C(=O)NC)cc2)c(O)c1N1CCCOc2ccccc21 [Example 146, 4′-((6-butyl-5-(3,4-dihydrobenzo[b][1,4]oxazepin-5(2H)-yl)-2,4-dihydroxypyridin-3-yl)sulfonyl)-N-methyl-[1,1′-biphenyl]-2-carboxamide]
[1]
  EC50: 0.01 to 10 nM
